Source: patent publication US9427433B2, “Methods and compositions for enhancing fertility and/or inhibiting pregnancy failure and restoring glucose tolerance” (Queen's University at Kingston, priority 2011, dated 2016)

Legend:
Format in all cases: in vivo, mouse
[1] = test system: 60% high fat fed NZO and DIO mice; test: Glucose tolerance test after tacrolimus; details: all treated type 2 diabetic and obese mice; FIG. 16B
Experimental: Twenty NZO and DIO/B6 female mice were maintained on a high fat diet consisted of 60% kcal fat, 20% kcal protein and 20% kcal carbohydrate, with a total energy mass of 5.24 kcal/gm (D12492, Research Diets Inc.; […] Tacrolimus (Prograf (5 mg/ml), Astellas) was administered subcutaneously in a dose of 0.1 mg/kg q2d in 0.2 ml saline for three weeks to the obese and glucose intolerant NZO and DIO mice starting at the age of 10 weeks after which animals were mated to males of the same strain and pregnancy was dated from the morning of the positive detection of vaginal (copulation) plug. See FIG. 2. […] Briefly, basal glucose levels were measured for conscious mice individually caged in 1000 cc plastic mouse caging using a one-touch ultra glucose strips and meter (Acqui-check Aviva, Roche, Montreal, Canada) and approximately 30 microliters of blood obtained via tail venipuncture prior to fasting for six hours in cages equipped with hardwood bedding. Fasting blood glucose was recorded at the end of the six hours fasting period. […] Then after, blood glucose was recorded at 15, 30, 45, 60, 90 and 120 minutes respectively. For Si experiments blood glucose was determined only at 15 minutes. Glucose tolerance graphs were generated by blotting mean±standard error of the mean (SEM) of the recorded glucose data per mouse per minute collection time. […]

[2] = test system: 60% high fat fed NZO or DIO mice; test: Body weight gain and visceral fat in high fat fed mice
Experimental: Twenty NZO and DIO/B6 female mice were maintained on a high fat diet consisted of 60% kcal fat, 20% kcal protein and 20% kcal carbohydrate, with a total energy mass of 5.24 kcal/gm (D12492, Research Diets Inc.; […] Tacrolimus (Prograf (5 mg/ml), Astellas) was administered subcutaneously in a dose of 0.1 mg/kg q2d in 0.2 ml saline for three weeks to the obese and glucose intolerant NZO and DIO mice starting at the age of 10 weeks after which animals were mated to males of the same strain and pregnancy was dated from the morning of the positive detection of vaginal (copulation) plug. See FIG. 2. Facial (mandibular) venous blood samples were collected from treated animals at 24 and 48 hours between injections and at pregnancy days 0.5, 2.5, 4.5, 6.5, 8.5, 10.5, 12.5, 14.5, 16.5 and 18.5, respectively, following a standard procedure for facial bleed in mice (Golde et al. Lab Anim (NY) 2005 34:39-43). A lean cohort of control B6 and BALBc mice was fed with a regular 10 kcal % control chow diet containing the same protein content as the high fat diet with a total energy mass of 3.1 kcal/g (D12450Bi, Cedarlane, Ontario).

[3] = test system: uteri of diabetic NOD mice; test: Uterodome maturation (scanning electron microscopy) and uterine LIF Western blot
Experimental: Using ice-cold sterile glass Dounce-tissue homogenizer, uterine samples collected from virgin and pregnant normoglycemic and diabetic NOD mice were homogenized in 3 volumes of the provided 1× homogenization buffer [Cytosolic and Nuclear Extraction Buffer Kit (Biovision Inc., CA, USA)] as per the manufacturer's instructions. Homogenized samples were centrifuged at 4° C. for 5 minutes at 16,000 g. Supernatants, referred to as cytosolic extracts, were immediately transferred into a clean pre-chilled tube kept on ice. Extraction of nuclear proteins from the remaining insoluble (pellet) fractions followed using ice-cold Nuclear Extraction Buffer Mix according to the supplier's instructions. Protein content of the extracted cytosolic and nuclear fractions was determined by Bradford assay. Extracted protein samples were aliquoted and stored at −80° C. for further analyses.
Mouse uterine cytosolic and nuclear proteins were resolved on 6 or 8% (w/v) Tris-SDS denaturing polyacrylamide gels in 1× sample loading buffer (150 mM sodium chloride, 1.0% Triton X-100 and 50 mM Tris, pH 8.0). Urea (8M) was added to the Tris-based SDS-PAGE for the detection of MUC1. […] Background-corrected intensities of Western blot protein bands on scanned films were processed using Image J. Data were expressed as means±SEM. GAPDH (detected as a band of approximately 37 kDa) was used as an internal loading control. […]

C=CC[C@@H]1/C=C(\C)C[C@H](C)C[C@H](OC)[C@H]2O[C@@](O)(C(=O)C(=O)N3CCCC[C@H]3C(=O)O[C@H](/C(C)=C/[C@@H]3CC[C@@H](O)[C@H](OC)C3)[C@H](C)[C@@H](O)CC1=O)[C@H](C)C[C@@H]2OC [tacrolimus]
glucose tolerance [1]: restored normal glucose tolerance | body weight gain ([2]; after the initial administration, FIG. 19B): prevented body weight gain for seven consecutive weeks | mass of the visceral fat ([2]; all treated mice): significantly lower | uterine LIF protein expression (Western blot) ([3]; days 4.5 and 6.5 postcoitum): induced LIF protein expression | maturation of uterodomes at implantation sites ([3]; pregnancy day 4.5): inducing maturation of uterodomes
